{"source": "ChEMBL document CHEMBL6115017", "about": "“Discovery of DFV890, a Potent Sulfonimidamide-Containing NLRP3 Inflammasome Inhibitor” (J Med Chem, 2025)", "key": {"[1]": {"assay": "Metabolic stability in rat hepatocytes assessed as intrinsic clearance measured per 10^6 cells", "assay_type": "ADME, cell-based, Hepatocyte", "conditions": "read-out: CLH"}, "[2]": {"assay": "Half life in Sprague-Dawley rat at 5 mg/kg, po by LC-MS analysis", "assay_type": "ADME, organism-based", "conditions": "in vivo"}, "[3]": {"assay": "Volume of distribution at steady state in Sprague-Dawley rat at 5 mg/kg, po by LC-MS analysis", "assay_type": "ADME, organism-based", "conditions": "in vivo"}, "[4]": {"assay": "Oral bioavailability in Sprague-Dawley rat at 5 mg/kg administered through oral gavage by LC-MS analysis", "assay_type": "ADME, organism-based", "conditions": "in vivo"}, "[5]": {"assay": "Volume of distribution at steady state in C57 BL6 mouse at 10 mg/kg, po and 2 mg/kg, iv by LC-MS analysis", "assay_type": "ADME, organism-based", "conditions": "in vivo"}, "[6]": {"assay": "Half life in Beagle dog at 2 mg/kg, po and 1 mg/kg, iv by LC-MS analysis", "assay_type": "ADME, organism-based, Canis lupus familiaris", "conditions": "in vivo"}, "[7]": {"assay": "Volume of distribution at steady state in Beagle dog at 2 mg/kg, po and 1 mg/kg, iv by LC-MS analysis", "assay_type": "ADME, organism-based, Canis lupus familiaris", "conditions": "in vivo"}, "[8]": {"assay": "Volume of distribution at steady state in Cynomolgus monkey at 5 mg/kg, po and 2 mg/kg, iv by LC-MS analysis", "assay_type": "ADME, organism-based, Macaca fascicularis", "conditions": "in vivo"}, "[9]": {"assay": "Oral bioavailability in Cynomolgus monkey at 5 mg/kg administrated through oral gavage and 2 mg/kg, iv by LC-MS analysis", "assay_type": "ADME, organism-based, Macaca fascicularis", "conditions": "in vivo"}, "[10]": {"assay": "Cmax in C57 BL6 mouse at 10 mg/kg, po by LC-MS analysis", "assay_type": "ADME, organism-based", "conditions": "in vivo"}, "[11]": {"assay": "Fraction unbound in C57 BL6 mouse plasma", "assay_type": "ADME, cell-free"}, "[12]": {"assay": "AUC (infinity) in Cynomolgus monkey at 5 mg/kg, po by LC-MS analysis", "assay_type": "ADME, organism-based, Macaca fascicularis", "conditions": "in vivo"}, "[13]": {"assay": "Cytotoxicity against mouse CT26 cells measured after 72 hrs", "assay_type": "toxicity, cell-based"}, "[14]": {"assay": "Thermodynamic solubility in PBS at pH 5", "assay_type": "physicochemical", "conditions": "read-out: Therm_solubility"}, "[15]": {"assay": "Thermodynamic solubility in PBS at pH 1", "assay_type": "physicochemical", "conditions": "read-out: Therm_solubility"}, "[16]": {"assay": "Thermodynamic solubility in Simulated colon solution", "assay_type": "physicochemical", "conditions": "read-out: Therm_solubility"}, "[17]": {"assay": "Metabolic stability in mouse hepatocytes assessed as intrinsic clearance measured per 10^6 cells", "assay_type": "ADME, cell-based, Hepatocyte", "conditions": "read-out: CLH"}, "[18]": {"assay": "Metabolic stability in dog hepatocytes assessed as intrinsic clearance measured per 10^6 cells", "assay_type": "ADME, cell-based, Canis lupus familiaris, Hepatocyte", "conditions": "read-out: CLH"}, "[19]": {"assay": "Apparent permeability of the compound across apical to basolateral side in MDCK", "assay_type": "ADME, cell-based, Canis lupus familiaris", "conditions": "dog"}, "Cytochrome P450 2C8 [20]": {"target": "T1, Cytochrome P450 2C8 (Homo sapiens, UniProt P10632)", "T1 sequence (P10632 whole entry)": "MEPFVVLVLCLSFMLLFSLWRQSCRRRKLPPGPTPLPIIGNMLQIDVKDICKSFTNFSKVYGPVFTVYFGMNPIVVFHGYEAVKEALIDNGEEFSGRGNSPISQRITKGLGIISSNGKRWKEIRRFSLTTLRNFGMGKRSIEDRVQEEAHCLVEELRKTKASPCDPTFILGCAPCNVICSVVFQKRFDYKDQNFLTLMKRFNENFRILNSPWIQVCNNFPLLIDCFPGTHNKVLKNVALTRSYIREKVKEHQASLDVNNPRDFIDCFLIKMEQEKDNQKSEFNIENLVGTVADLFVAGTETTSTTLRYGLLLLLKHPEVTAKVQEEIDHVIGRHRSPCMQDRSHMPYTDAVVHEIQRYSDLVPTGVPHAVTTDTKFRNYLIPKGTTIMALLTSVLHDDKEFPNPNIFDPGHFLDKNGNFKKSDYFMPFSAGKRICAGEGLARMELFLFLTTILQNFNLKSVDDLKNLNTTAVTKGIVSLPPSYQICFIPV", "assay": "Inhibition of CYP2C8 (unknown origin)", "assay_type": "ADME"}, "Cytochrome P450 2C19": {"target": "Cytochrome P450 2C19 (Homo sapiens, UniProt P33261)", "sequence (P33261 whole entry)": "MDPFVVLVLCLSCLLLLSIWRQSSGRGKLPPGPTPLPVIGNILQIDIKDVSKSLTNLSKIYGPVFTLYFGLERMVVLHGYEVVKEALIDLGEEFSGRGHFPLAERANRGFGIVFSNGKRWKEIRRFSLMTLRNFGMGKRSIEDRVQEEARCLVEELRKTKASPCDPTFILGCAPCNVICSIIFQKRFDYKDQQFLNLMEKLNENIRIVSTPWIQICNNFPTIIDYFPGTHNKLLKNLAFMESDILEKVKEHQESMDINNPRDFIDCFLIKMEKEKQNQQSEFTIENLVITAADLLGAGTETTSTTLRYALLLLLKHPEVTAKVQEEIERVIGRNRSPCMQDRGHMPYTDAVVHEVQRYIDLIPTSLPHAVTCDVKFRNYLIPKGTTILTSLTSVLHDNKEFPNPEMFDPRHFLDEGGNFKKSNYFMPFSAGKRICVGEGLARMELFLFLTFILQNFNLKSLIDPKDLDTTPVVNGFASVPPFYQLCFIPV", "assay": "Inhibition of CYP2C19 (unknown origin)", "assay_type": "ADME"}, "Cytochrome P450 2D6": {"target": "Cytochrome P450 2D6 (Homo sapiens, UniProt P10635)", "sequence (P10635 whole entry)": "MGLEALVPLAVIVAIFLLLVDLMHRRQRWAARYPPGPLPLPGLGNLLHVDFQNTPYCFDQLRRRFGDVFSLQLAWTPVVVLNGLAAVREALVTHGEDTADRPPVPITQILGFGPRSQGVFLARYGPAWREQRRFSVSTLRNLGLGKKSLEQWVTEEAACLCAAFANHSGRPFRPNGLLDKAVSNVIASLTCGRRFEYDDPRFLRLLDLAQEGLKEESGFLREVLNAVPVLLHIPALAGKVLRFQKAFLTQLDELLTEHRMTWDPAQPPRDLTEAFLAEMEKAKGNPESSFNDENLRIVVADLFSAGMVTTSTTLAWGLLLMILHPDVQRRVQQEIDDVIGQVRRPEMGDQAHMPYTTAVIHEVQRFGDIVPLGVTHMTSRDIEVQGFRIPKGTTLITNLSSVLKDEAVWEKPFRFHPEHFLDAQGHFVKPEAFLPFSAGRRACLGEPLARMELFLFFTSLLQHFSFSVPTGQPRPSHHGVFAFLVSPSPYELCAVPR", "assay": "Inhibition of CYP2D6 (unknown origin)", "assay_type": "ADME"}, "Cytochrome P450 3A4": {"target": "Cytochrome P450 3A4 (Homo sapiens, UniProt P08684)", "sequence (P08684 whole entry)": "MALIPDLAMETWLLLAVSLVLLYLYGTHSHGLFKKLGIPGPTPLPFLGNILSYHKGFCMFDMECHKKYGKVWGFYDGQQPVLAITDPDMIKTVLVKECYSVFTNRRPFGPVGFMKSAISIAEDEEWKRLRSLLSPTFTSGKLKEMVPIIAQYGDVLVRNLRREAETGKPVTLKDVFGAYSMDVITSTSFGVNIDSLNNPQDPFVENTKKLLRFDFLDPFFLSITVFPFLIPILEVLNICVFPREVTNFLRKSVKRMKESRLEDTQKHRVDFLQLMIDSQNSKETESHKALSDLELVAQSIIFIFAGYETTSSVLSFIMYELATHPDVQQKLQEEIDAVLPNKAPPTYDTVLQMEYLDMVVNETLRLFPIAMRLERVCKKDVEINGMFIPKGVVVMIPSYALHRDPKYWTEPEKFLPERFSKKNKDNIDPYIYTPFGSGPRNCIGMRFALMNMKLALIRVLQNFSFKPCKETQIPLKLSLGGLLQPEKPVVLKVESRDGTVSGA", "assay": "Inhibition of CYP3A4 (unknown origin)", "assay_type": "ADME"}, "Cytochrome P450 2B6": {"target": "T2, Cytochrome P450 2B6 (Homo sapiens, UniProt P20813)", "T2 sequence (P20813 whole entry)": "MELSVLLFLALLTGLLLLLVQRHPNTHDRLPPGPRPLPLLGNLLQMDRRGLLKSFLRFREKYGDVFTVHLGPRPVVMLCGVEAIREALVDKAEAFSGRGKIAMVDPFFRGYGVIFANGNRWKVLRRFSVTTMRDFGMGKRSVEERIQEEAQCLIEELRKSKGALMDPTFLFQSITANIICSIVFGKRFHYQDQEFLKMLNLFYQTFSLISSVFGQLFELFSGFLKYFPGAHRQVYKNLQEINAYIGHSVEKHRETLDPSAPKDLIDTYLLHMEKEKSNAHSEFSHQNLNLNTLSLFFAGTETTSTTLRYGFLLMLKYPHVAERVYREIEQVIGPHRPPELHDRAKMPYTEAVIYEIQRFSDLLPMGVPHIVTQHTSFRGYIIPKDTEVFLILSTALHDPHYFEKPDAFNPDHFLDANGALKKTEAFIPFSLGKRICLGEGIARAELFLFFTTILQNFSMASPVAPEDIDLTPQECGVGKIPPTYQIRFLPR", "assay": "Inhibition of CYP2B6 (unknown origin) by time dependent inhibition assay", "assay_type": "ADME"}, "Cytochrome P450 2C8 [21]": {"target": "T1, Cytochrome P450 2C8", "assay": "Inhibition of CYP2C8 (unknown origin) by time dependent inhibition assay", "assay_type": "ADME"}, "Cytochrome P450 2C9": {"target": "Cytochrome P450 2C9 (Homo sapiens, UniProt P11712)", "sequence (P11712 whole entry)": "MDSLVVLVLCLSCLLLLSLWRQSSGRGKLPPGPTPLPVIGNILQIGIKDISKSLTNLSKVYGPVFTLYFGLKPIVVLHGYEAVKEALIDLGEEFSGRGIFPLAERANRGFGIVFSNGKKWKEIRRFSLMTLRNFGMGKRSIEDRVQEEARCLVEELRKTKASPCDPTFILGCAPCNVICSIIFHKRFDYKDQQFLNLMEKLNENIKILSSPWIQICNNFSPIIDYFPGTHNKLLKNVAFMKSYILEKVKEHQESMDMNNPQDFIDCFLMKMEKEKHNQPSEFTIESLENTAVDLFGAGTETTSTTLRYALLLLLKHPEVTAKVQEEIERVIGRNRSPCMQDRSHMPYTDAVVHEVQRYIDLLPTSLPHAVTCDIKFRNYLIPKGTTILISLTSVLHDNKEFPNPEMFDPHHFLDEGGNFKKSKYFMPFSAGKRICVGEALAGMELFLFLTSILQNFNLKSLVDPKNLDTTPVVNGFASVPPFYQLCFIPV", "assay": "Inhibition of CYP2C9 (unknown origin) by time dependent inhibition assay", "assay_type": "ADME"}, "hERG": {"target": "hERG (Homo sapiens, UniProt Q12809)", "sequence (Q12809 whole entry)": "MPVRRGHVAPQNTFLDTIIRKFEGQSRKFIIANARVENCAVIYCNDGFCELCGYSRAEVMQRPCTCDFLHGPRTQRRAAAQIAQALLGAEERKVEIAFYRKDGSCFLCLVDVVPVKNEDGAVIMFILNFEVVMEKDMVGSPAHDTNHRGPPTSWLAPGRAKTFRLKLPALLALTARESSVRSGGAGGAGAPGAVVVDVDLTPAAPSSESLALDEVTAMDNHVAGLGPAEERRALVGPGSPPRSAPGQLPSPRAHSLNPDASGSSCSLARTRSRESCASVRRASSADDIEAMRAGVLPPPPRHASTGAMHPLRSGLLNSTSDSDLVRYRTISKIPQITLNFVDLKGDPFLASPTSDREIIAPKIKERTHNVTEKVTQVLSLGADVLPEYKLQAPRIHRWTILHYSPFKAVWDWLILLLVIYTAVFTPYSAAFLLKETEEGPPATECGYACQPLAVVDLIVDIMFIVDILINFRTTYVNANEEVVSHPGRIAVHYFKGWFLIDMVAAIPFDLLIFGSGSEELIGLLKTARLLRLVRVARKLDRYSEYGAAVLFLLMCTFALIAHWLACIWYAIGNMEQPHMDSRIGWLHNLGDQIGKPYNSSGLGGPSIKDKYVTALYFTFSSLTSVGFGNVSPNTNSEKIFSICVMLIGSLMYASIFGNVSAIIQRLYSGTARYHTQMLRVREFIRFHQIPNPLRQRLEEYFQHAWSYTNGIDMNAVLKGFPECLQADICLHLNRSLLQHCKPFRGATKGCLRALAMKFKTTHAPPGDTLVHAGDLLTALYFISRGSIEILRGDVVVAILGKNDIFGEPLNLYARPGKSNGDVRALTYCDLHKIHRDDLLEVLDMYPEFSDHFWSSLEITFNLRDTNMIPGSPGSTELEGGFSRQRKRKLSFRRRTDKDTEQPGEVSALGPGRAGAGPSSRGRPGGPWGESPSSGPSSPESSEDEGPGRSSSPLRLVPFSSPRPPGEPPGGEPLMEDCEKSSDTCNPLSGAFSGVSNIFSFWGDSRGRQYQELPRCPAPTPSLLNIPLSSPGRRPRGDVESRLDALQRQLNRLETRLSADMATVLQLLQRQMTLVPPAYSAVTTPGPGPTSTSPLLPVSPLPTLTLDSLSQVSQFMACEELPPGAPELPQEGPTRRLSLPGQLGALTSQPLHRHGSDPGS", "assay": "Inhibition of hERG at 30 uM relative to control", "assay_type": "toxicity"}, "Bile salt export pump": {"target": "Bile salt export pump (Homo sapiens, UniProt O95342)", "sequence (O95342 whole entry)": "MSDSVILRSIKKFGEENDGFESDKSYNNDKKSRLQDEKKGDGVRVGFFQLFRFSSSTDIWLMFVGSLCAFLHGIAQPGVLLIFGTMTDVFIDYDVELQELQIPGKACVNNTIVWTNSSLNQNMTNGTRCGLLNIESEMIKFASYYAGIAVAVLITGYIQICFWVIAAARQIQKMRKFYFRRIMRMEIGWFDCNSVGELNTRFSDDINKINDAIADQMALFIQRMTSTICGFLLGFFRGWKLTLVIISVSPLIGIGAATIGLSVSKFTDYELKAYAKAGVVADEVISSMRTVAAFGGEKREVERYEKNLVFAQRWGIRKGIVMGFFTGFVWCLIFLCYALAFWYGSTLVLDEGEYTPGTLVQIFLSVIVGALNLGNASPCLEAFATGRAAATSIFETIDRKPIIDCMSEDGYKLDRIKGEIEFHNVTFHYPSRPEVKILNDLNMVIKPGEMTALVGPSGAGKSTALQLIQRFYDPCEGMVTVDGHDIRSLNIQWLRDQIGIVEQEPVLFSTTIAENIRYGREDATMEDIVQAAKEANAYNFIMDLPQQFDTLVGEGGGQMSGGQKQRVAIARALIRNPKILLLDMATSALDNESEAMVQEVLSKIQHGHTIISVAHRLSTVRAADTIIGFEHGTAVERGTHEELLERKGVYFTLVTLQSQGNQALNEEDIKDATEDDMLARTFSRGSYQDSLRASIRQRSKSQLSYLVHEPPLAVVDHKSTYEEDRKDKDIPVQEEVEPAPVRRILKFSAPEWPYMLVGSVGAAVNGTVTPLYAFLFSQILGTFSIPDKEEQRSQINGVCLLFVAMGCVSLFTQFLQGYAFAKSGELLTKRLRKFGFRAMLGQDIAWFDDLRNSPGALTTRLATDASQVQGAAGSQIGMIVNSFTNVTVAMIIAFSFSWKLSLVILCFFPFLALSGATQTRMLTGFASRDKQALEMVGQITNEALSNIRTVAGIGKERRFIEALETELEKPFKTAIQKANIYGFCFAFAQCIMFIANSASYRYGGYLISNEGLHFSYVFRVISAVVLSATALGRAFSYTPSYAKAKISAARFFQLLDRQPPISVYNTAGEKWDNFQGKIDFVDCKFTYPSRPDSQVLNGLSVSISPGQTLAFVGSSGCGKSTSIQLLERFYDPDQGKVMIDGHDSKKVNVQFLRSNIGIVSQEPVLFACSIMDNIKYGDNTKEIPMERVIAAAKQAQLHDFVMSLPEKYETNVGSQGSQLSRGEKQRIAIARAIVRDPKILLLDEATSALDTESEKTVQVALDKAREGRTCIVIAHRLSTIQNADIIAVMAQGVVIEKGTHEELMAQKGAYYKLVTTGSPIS", "assay": "Inhibition of BSEP (unknown origin) assessed as reduction in uptake rate of taurocholic acid at 5 uM relative to control", "assay_type": "toxicity"}, "[22]": {"target": "5-hydroxytryptamine receptor 2A (Homo sapiens) (UniProt P28223)", "sequence (P28223 whole entry)": "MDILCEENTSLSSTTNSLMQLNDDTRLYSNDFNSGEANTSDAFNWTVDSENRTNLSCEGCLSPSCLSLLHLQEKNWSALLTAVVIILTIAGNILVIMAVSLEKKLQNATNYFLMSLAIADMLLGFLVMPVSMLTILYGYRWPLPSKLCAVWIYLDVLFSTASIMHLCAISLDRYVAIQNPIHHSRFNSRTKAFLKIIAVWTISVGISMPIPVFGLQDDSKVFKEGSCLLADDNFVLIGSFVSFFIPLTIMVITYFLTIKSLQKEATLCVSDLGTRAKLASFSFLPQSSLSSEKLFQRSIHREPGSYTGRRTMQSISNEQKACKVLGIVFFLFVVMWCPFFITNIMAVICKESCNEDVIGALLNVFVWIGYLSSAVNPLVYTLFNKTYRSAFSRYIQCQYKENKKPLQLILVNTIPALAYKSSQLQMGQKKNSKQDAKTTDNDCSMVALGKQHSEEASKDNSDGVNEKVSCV", "assay": "Inhibition of 5HT2A (unknown origin)", "conditions": "concentration not given here"}, "PXR": {"target": "T3, PXR (Homo sapiens, UniProt O75469)", "T3 sequence (O75469 whole entry)": "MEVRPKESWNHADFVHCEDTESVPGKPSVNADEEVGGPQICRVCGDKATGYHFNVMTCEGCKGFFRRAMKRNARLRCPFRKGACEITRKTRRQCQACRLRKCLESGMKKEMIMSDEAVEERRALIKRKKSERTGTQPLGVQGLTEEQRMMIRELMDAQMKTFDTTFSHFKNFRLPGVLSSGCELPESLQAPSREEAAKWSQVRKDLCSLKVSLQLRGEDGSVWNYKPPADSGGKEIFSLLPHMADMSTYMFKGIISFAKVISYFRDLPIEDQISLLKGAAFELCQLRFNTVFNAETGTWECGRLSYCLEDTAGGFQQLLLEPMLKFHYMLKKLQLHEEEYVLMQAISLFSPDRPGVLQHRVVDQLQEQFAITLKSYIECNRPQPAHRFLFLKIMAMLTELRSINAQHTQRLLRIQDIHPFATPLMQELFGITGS", "assay": "Activation of PXR (unknown origin) assessed as activation at 30 uM relative to control", "assay_type": "toxicity", "conditions": "read-out: Activity"}, "cells": {"assay": "cells", "conditions": "Macaca fascicularis, PBMC", "description": "Antagonist activity at NLRP3 inflammasome activation in Cynomolgus monkey PBMC assessed as inhibition of LPS-stimulated IL-1beta release pretreated for 1 hr followed by induced with LPS measured after 18 hrs by HTRF analysis"}}, "data": [{"compound": "CC(C)(O)c1ncc([S@](N)(=O)=NC(=O)Nc2c3c(cc4c2CCC4)CCC3)s1", "values": [{"measurement": "hepatocyte CLint", "setting": "[1]", "value": 7.5, "unit": "µL/min/1e6 cells"}, {"measurement": "half-life", "setting": "[2]", "value": 2.81, "unit": "h"}, {"measurement": "Vdss", "setting": "[3]", "value": 0.188, "unit": "L/kg"}, {"measurement": "bioavailability", "setting": "[4]", "value": 82, "unit": "%"}, {"measurement": "Vdss", "setting": "[5]", "value": 0.12, "unit": "L/kg"}, {"measurement": "half-life", "setting": "[6]", "value": 9.4, "unit": "h"}, {"measurement": "Vdss", "setting": "[7]", "value": 0.16, "unit": "L/kg"}, {"measurement": "Vdss", "setting": "[8]", "value": 0.084, "unit": "L/kg"}, {"measurement": "bioavailability", "setting": "[9]", "value": 83, "unit": "%"}, {"measurement": "Cmax", "setting": "[10]", "value": 22200, "unit": "ng/mL"}, {"measurement": "fraction unbound", "setting": "[11]", "value": 0.015}, {"measurement": "AUC(0-inf)", "setting": "[12]", "value": 331, "unit": "µg·h/mL"}, {"measurement": "EC50 at 72 h", "setting": "[13]", "value": "> 100", "unit": "µM"}, {"measurement": "solubility thermodynamic", "setting": "[14]", "value": 9.1, "unit": "µg/mL"}, {"measurement": "solubility thermodynamic", "setting": "[15]", "value": 7.4, "unit": "µg/mL"}, {"measurement": "solubility thermodynamic", "setting": "[16]", "value": 31.9, "unit": "µg/mL"}, {"measurement": "hepatocyte CLint", "setting": "[17]", "value": "< 1.9", "unit": "µL/min/1e6 cells"}, {"measurement": "hepatocyte CLint", "setting": "[18]", "value": "< 1.9", "unit": "µL/min/1e6 cells"}, {"measurement": "Papp A→B", "setting": "[19]", "value": 8.2, "unit": "×10⁻⁶ cm/s"}, {"measurement": "IC50", "setting": "Cytochrome P450 2C8 [20]", "value": "> 60", "unit": "µM"}, {"measurement": "IC50", "setting": "Cytochrome P450 2C19", "value": "> 60", "unit": "µM"}, {"measurement": "IC50", "setting": "Cytochrome P450 2D6", "value": "> 60", "unit": "µM"}, {"measurement": "IC50", "setting": "Cytochrome P450 3A4", "value": "> 60", "unit": "µM"}, {"measurement": "TDI", "setting": "Cytochrome P450 2B6", "value": "Not_active"}, {"measurement": "TDI", "setting": "Cytochrome P450 2C8 [21]", "value": "Not_active"}, {"measurement": "TDI", "setting": "Cytochrome P450 2C9", "value": "Not_active"}, {"measurement": "inhibition at 30 µM", "setting": "hERG", "value": 8, "unit": "%"}, {"measurement": "Activity", "setting": "Bile salt export pump", "value": "Not_active"}, {"measurement": "inhibition", "setting": "[22]", "value": "> 50", "unit": "%"}, {"measurement": "activity at 30 µM", "setting": "PXR", "value": 19, "unit": "%"}, {"measurement": "IC50", "setting": "cells", "value": 0.0061, "unit": "µM"}]}]}
